Measured values as given in patent publication US8642594B2, “Substituted thieno[2,3-d]pyrimidines as HSP90 inhibitors” (Vernalis (R&D) Limited, priority 2003, dated 2014).

molecular target: T1, Human full-length Hsp90 (Homo sapiens, UniProt P08238); experiment: Fluorescence polarization assay (competitive binding to HSP90, probe RBT0045864-FAM); details: not given
T1 construct: E. coli expressed human full-length HSP90 protein, purified >95%; made in house; host or cells: E. coli
Description: Fluorescence Polarization Assay
Fluorescence polarization {also known as fluorescence anisotropy} measures the rotation of a fluorescing species in solution, where the larger molecule the more polarized the fluorescence emission. When the fluorophore is excited with polarized light, the emitted light is also polarized. The molecular size is proportional to the polarization of the fluorescence emission.
The fluoroscein-labelled probe—RBT0045864-FAM—
Test compound is added to the assay plate, left to equilibrate and the anisotropy measured again. Any change in anisotropy is due to competitive binding of compound to HSP90, thereby releasing probe.
Stored at room temperature. • 3) BSA (bovine serum albumen) 10 mg/ml (New England Biolabs #B9001S) • 4) 20 mM probe in 100% DMSO stock concentration. Stored in the dark at RT. Working concentration is 200 nM diluted in AR water and stored at 4° C. […] Protocol • 1) Add 100 μl 1× buffer to wells 11A and 12A (=FP BLNK) • 2) Prepare assay mix—all reagents are kept on ice with a lid on the bucket as the probe is light-sensitive.
This gives 2.5 mM {50×} stock cpd—assuming cpds 20 mM. • 4) Repeat for wells A2 to A10. Control in columns 11 and 12. • 5) Transfer 5 μl from row A to row B—not column 12. Mix well. • 6) Transfer 5 μl from row B to row C. […] Add 2 μl of 100 mM standard cpd to wells B12-H12 {is positive control} • 13) The Z′ factor is calculated from zero controls and positive wells.

T1 sequence (P08238 whole entry): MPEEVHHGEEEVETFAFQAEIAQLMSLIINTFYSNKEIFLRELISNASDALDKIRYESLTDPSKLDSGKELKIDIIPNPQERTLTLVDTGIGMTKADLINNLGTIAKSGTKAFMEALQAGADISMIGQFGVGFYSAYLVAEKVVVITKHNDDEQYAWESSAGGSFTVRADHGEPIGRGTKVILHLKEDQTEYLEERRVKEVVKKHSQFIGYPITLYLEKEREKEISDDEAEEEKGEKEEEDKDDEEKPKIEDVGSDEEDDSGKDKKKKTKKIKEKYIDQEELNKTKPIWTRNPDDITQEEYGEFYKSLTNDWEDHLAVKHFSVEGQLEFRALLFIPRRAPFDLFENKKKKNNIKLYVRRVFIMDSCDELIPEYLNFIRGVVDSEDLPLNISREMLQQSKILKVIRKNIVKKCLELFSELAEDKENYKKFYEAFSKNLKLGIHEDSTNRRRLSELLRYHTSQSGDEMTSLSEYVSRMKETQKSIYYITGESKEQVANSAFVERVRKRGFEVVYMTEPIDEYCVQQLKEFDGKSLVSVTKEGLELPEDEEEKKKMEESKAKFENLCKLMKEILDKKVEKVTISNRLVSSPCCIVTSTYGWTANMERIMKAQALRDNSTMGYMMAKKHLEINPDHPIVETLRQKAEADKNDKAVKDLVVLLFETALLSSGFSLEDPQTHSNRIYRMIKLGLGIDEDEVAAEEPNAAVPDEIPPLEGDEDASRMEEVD

| SMILES | IC50 [µM] |
| --- | --- |
| CCNC(=O)c1cc2c(-c3ccc(Cl)cc3Cl)nc(N)nc2s1 [Example 98] | < 10 |

same assay, conditions: fluorescence polarization assay, activity range; read-out: Hsp90 FP IC50

| IC50 [µM] | SMILES |
| --- | --- |
| < 10 | CCOC(=O)c1cc2c(-c3cccc(C)c3C)nc(N)nc2s1 [Example 87] |
| < 10 | CCOC(=O)c1cc2c(-c3cc(C)ccc3C)nc(N)nc2s1 [Example 88] |
| < 10 | CCOC(=O)c1cc2c(-c3ccc(Cl)cc3Cl)nc(N)nc2s1 [Example 89] |
| > 10 | CCOC(=O)c1cc2c(-c3ccc(OCc4ccccc4)cc3C)nc(N)nc2s1 [Example 90] |
| < 10 | Cc1ccc(-c2nc(N)nc3sc(C(=O)Nc4ccccc4)cc23)c(C)c1 [Example 91] |
| < 10 | Cc1ccc(-c2nc(N)nc3sc(C(=O)NCc4ccccc4)cc23)c(C)c1 [Example 92] |
| > 10 | CCCN(C)C(=O)c1cc2c(-c3ccc(C)cc3C)nc(N)nc2s1 [Example 93] |
| > 10 | CCOC(=O)c1cc2c(-c3cccnc3)nc(N)nc2s1 [Example 94] |
| < 10 | Cc1ccc(-c2nc(N)nc3sc(C(=O)NCC(N)=O)cc23)c(C)c1 [Example 95] |
| > 10 | Cc1ccc(-c2nc(N)nc3sc(C(=O)N4CCOCC4)cc23)c(C)c1 [Example 96] |
| < 10 | CCOC(=O)c1cc2c(-c3ccccc3Br)nc(N)nc2s1 [Example 97] |
| > 10 | CCOC(=O)c1sc2nc(N)nc(-c3ccccc3)c2c1Br [Example 99] |
| > 10 | CCOC(=O)c1cc2c(-c3cccc4cccnc34)nc(N)nc2s1 [Example 100] |
| < 10 | Nc1nc(-c2ccc(Cl)cc2Cl)c2cc(C(=O)NCCCO)sc2n1 [Example 101] |
| < 10 | CN(C)CCCNC(=O)c1cc2c(-c3ccc(Cl)cc3Cl)nc(N)nc2s1 [Example 102] |
| > 10 | CCOC(=O)c1cc2c(-c3ccccn3)nc(N)nc2s1 [Example 104] |
| < 10 | CCOC(=O)c1cc2c(-c3cc(C)c(Br)cc3C)nc(N)nc2s1 [Example 105] |

| IC50 [µM] | SMILES |
| --- | --- |
| > 10 | CCOC(=O)c1cc2c(-c3cc(Cl)ccc3Cl)nc(N)nc2s1 [Example 106] |
| < 10 | Nc1nc(-c2ccc(Cl)cc2Cl)c2cc(C(=O)Nc3ccccc3)sc2n1 [Example 107] |
| < 10 | Nc1nc(-c2ccc(Cl)cc2Cl)c2cc(C(=O)Nc3ccc(S(N)(=O)=O)cc3)sc2n1 [Example 108] |
| < 10 | Nc1nc(-c2ccc(Cl)cc2Cl)c2cc(C(=O)Nc3cccc(Cl)c3)sc2n1 [Example 109] |
| < 10 | NC(=O)c1ccc(NC(=O)c2cc3c(-c4ccc(Cl)cc4Cl)nc(N)nc3s2)cc1 [Example 110] |
| < 10 | Nc1nc(-c2ccc(Cl)cc2Cl)c2cc(C(=O)Nc3ccc(Cl)cc3)sc2n1 [Example 111] |
| < 10 | Nc1nc(-c2ccc(Cl)cc2Cl)c2cc(C(=O)Nc3ccc(S(=O)(=O)O)cc3)sc2n1 [Example 112] |
| < 10 | COc1ccc(NC(=O)c2cc3c(-c4ccc(Cl)cc4Cl)nc(N)nc3s2)cc1 [Example 113] |
| < 10 | CCOC(=O)c1cc2c(-c3ccc(C)cn3)nc(N)nc2s1 [Example 114] |
| < 10 | CCOC(=O)c1cc2c(-c3ncccc3C)nc(N)nc2s1 [Example 115] |
| < 10 | Nc1nc(-c2ccc(Cl)cc2Cl)c2cc(C(=O)NCc3ccc(S(N)(=O)=O)cc3)sc2n1 [Example 116] |
| < 10 | CS(=O)(=O)c1ccc(CNC(=O)c2cc3c(-c4ccc(Cl)cc4Cl)nc(N)nc3s2)cc1 [Example 117] |
| < 10 | COc1ccc(CNC(=O)c2cc3c(-c4ccc(Cl)cc4Cl)nc(N)nc3s2)cc1 [Example 118] |
| < 10 | Nc1nc(-c2ccc(Cl)cc2Cl)c2cc(C(=O)NCc3ccc4c(c3)OCO4)sc2n1 [Example 119] |
| < 10 | Nc1nc(-c2ccc(Cl)cc2Cl)c2cc(C(=O)NCc3ccc(F)cc3)sc2n1 [Example 120] |
| < 10 | Nc1nc(-c2ccc(Cl)cc2Cl)c2cc(C(=O)NCc3ccc(Cl)cc3)sc2n1 [Example 121] |
| < 10 | Nc1nc(-c2ccc(Cl)cc2Cl)c2cc(C(=O)NCc3cccc(C(F)(F)F)c3)sc2n1 [Example 122] |
